Assay results taken from the supplement of paper PMC11665569.
± gives the standard deviation of the averaged measurements.

Columns and labels:
Assay in all cases: relative viability (fraction of vehicle control); higher = more viable / less inhibited
Settings in all cases: treatment time: 5 days
H1373 = tested on: H1373
Method: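 CCK-8 viability of H1373 cells with empty vector or constitutively active YAP S127A, treated with KRAS G12C inhibitors for 5 days, normalised to vehicle control.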

H358 = tested on: H358
Method: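 CCK-8 viability of H358 cells with empty vector or constitutively active YAP S127A, treated with KRAS G12C inhibitors for 5 days. Absorbance at 450 nm normalised to vehicle control.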

MIAPACA2 = tested on: MIAPACA2
Method: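 CCK-8 viability of MIAPACA2 cells with empty vector or constitutively active YAP S127A, treated with KRAS G12C inhibitors for 5 days, normalised to vehicle control.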

H2030 = tested on: H2030
Method: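 CCK-8 viability of H2030 cells transfected with control, YAP/TAZ or TEAD1-4 siRNAs and treated with KRAS G12C inhibitors for 5 days. Values are normalised to vehicle control.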

[1] = log10 concentration (uM): 0, ectopic expression: YAP S127A
[2] = log10 concentration (uM): 0, ectopic expression: empty vector (YAP experiment)
[3] = log10 concentration (uM): 1, ectopic expression: YAP S127A
[4] = log10 concentration (uM): 1, ectopic expression: empty vector (YAP experiment)
[5] = log10 concentration (uM): 1.301029996, ectopic expression: YAP S127A
[6] = log10 concentration (uM): 1.301029996, ectopic expression: empty vector (YAP experiment)
[7] = log10 concentration (uM): -1, ectopic expression: YAP S127A
[8] = log10 concentration (uM): -1, ectopic expression: empty vector (YAP experiment)
[9] = log10 concentration (uM): -1.30103, ectopic expression: YAP S127A
[10] = log10 concentration (uM): -1.30103, ectopic expression: empty vector (YAP experiment)
[11] = log10 concentration (uM): -2, ectopic expression: YAP S127A
[12] = log10 concentration (uM): -2, ectopic expression: empty vector (YAP experiment)
[13] = log10 concentration (uM): -2.30103, ectopic expression: YAP S127A
[14] = log10 concentration (uM): -2.30103, ectopic expression: empty vector (YAP experiment)
[15] = log10 concentration (uM): -3, ectopic expression: YAP S127A
[16] = log10 concentration (uM): -3, ectopic expression: empty vector (YAP experiment)
[17] = log10 concentration (uM): -4, ectopic expression: YAP S127A
[18] = log10 concentration (uM): -4, ectopic expression: empty vector (YAP experiment)

C=CC(=O)N1CCN(c2nc(=O)n(-c3c(C)ccnc3C(C)C)c3nc(-c4c(O)cccc4F)c(F)cc23)[C@@H](C)C1 [AMG510]
relative viability (H1373; [1]): 0.575 ± 0.03 | relative viability (H1373; [2]): 0.267 ± 0.027 | relative viability (H1373; [3]): 0.47 ± 0.026 | relative viability (H1373; [4]): 0.245 ± 0.033 | relative viability (H1373; [5]): 0.25 ± 0.012 | relative viability (H1373; [6]): 0.12 ± 0.022 | relative viability (H1373; [7]): 0.581 ± 0.04 | relative viability (H1373; [8]): 0.351 ± 0.023 | relative viability (H1373; [9]): 0.619 ± 0.042 | relative viability (H1373; [10]): 0.407 ± 0.021 | relative viability (H1373; [11]): 0.636 ± 0.099 | relative viability (H1373; [12]): 0.624 ± 0.038 | relative viability (H1373; [13]): 0.71 ± 0.067 | relative viability (H1373; [14]): 0.68 ± 0.066 | relative viability (H1373; [15]): 0.834 ± 0.083 | relative viability (H1373; [16]): 0.937 ± 0.042 | relative viability (H1373; [17]): 0.986 ± 0.055 | relative viability (H1373; [18]): 1.01 ± 0.06 | relative viability (H358; [1]): 0.42 ± 0.04 | relative viability (H358; [2]): 0.15 ± 0.017 | relative viability (H358; [3]): 0.46 ± 0.053 | relative viability (H358; [4]): 0.183 ± 0.029 | relative viability (H358; [5]): 0.327 ± 0.19 | relative viability (H358; [6]): 0.172 ± 0.025 | relative viability (H358; [7]): 0.453 ± 0.023 | relative viability (H358; [8]): 0.256 ± 0.025 | relative viability (H358; [9]): 0.52 ± 0.06 | relative viability (H358; [10]): 0.433 ± 0.14 | relative viability (H358; [11]): 0.727 ± 0.12 | relative viability (H358; [12]): 0.822 ± 0.048 | relative viability (H358; [13]): 0.753 ± 0.046 | relative viability (H358; [14]): 0.822 ± 0.14 | relative viability (H358; [15]): 0.96 ± 0.072 | relative viability (H358; [16]): 0.828 ± 0.11 | relative viability (H358; [17]): 0.873 ± 0.031 | relative viability (H358; [18]): 1.01 ± 0.082 | relative viability (MIAPACA2; [1]): 0.773 ± 0.0088 | relative viability (MIAPACA2; [2]): 0.0894 ± 0.0063 | relative viability (MIAPACA2; [3]): 0.727 ± 0.084 | relative viability (MIAPACA2; [4]): 0.106 ± 0.0058 | relative viability (MIAPACA2; [5]): 0.285 ± 0.026 | relative viability (MIAPACA2; [6]): 0.047 ± 0.0069 | relative viability (MIAPACA2; [7]): 0.861 ± 0.027 | relative viability (MIAPACA2; [8]): 0.128 ± 0.0098 | relative viability (MIAPACA2; [9]): 0.91 ± 0.013 | relative viability (MIAPACA2; [10]): 0.237 ± 0.051 | relative viability (MIAPACA2; [11]): 0.988 ± 0.091 | relative viability (MIAPACA2; [12]): 0.79 ± 0.17 | relative viability (MIAPACA2; [13]): 1.03 ± 0.025 | relative viability (MIAPACA2; [14]): 0.906 ± 0.068 | relative viability (MIAPACA2; [15]): 1.05 ± 0.15 | relative viability (MIAPACA2; [16]): 1.03 ± 0.016 | relative viability (MIAPACA2; [17]): 1 ± 0.18 | relative viability (MIAPACA2; [18]): 1 ± 0.079 | relative viability (H2030; log10 concentration (uM): 0, siRNA knockdown: TEAD1-4 siRNA 1): 0.446 ± 0.028 | relative viability (H2030; log10 concentration (uM): 0, siRNA knockdown: TEAD1-4 siRNA 2): 0.411 ± 0.011 | relative viability (H2030; log10 concentration (uM): 0, siRNA knockdown: YAP/TAZ siRNA 1): 0.25 ± 0.031 | relative viability (H2030; log10 concentration (uM): 0, siRNA knockdown: YAP/TAZ siRNA 2): 0.224 ± 0.011 | relative viability (H2030; log10 concentration (uM): 0, siRNA knockdown: negative control siRNA): 0.714 ± 0.069 | relative viability (H2030; log10 concentration (uM): 1, siRNA knockdown: TEAD1-4 siRNA 1): 0.345 ± 0.033 | relative viability (H2030; log10 concentration (uM): 1, siRNA knockdown: TEAD1-4 siRNA 2): 0.325 ± 0.014 | relative viability (H2030; log10 concentration (uM): 1, siRNA knockdown: YAP/TAZ siRNA 1): 0.257 ± 0.021 | relative viability (H2030; log10 concentration (uM): 1, siRNA knockdown: YAP/TAZ siRNA 2): 0.283 ± 0.041 | relative viability (H2030; log10 concentration (uM): 1, siRNA knockdown: negative control siRNA): 0.56 ± 0.13 | relative viability (H2030; log10 concentration (uM): 1.301029996, siRNA knockdown: TEAD1-4 siRNA 1): 0.193 ± 0.064 | relative viability (H2030; log10 concentration (uM): 1.301029996, siRNA knockdown: TEAD1-4 siRNA 2): 0.209 ± 0.032 | relative viability (H2030; log10 concentration (uM): 1.301029996, siRNA knockdown: YAP/TAZ siRNA 1): 0.148 ± 0.015 | relative viability (H2030; log10 concentration (uM): 1.301029996, siRNA knockdown: YAP/TAZ siRNA 2): 0.179 ± 0.0071 | relative viability (H2030; log10 concentration (uM): 1.301029996, siRNA knockdown: negative control siRNA): 0.403 ± 0.14 | relative viability (H2030; log10 concentration (uM): -1, siRNA knockdown: TEAD1-4 siRNA 1): 0.504 ± 0.032 | relative viability (H2030; log10 concentration (uM): -1, siRNA knockdown: TEAD1-4 siRNA 2): 0.556 ± 0.081 | relative viability (H2030; log10 concentration (uM): -1, siRNA knockdown: YAP/TAZ siRNA 1): 0.181 ± 0.025 | relative viability (H2030; log10 concentration (uM): -1, siRNA knockdown: YAP/TAZ siRNA 2): 0.181 ± 0.023 | relative viability (H2030; log10 concentration (uM): -1, siRNA knockdown: negative control siRNA): 0.737 ± 0.056 | relative viability (H2030; log10 concentration (uM): -1.30103, siRNA knockdown: TEAD1-4 siRNA 1): 0.514 ± 0.0015 | relative viability (H2030; log10 concentration (uM): -1.30103, siRNA knockdown: TEAD1-4 siRNA 2): 0.445 ± 0.067 | relative viability (H2030; log10 concentration (uM): -1.30103, siRNA knockdown: YAP/TAZ siRNA 1): 0.207 ± 0.031 | relative viability (H2030; log10 concentration (uM): -1.30103, siRNA knockdown: YAP/TAZ siRNA 2): 0.212 ± 0.032 | relative viability (H2030; log10 concentration (uM): -1.30103, siRNA knockdown: negative control siRNA): 0.773 ± 0.079 | relative viability (H2030; log10 concentration (uM): -2, siRNA knockdown: TEAD1-4 siRNA 1): 0.773 ± 0.064 | relative viability (H2030; log10 concentration (uM): -2, siRNA knockdown: TEAD1-4 siRNA 2): 0.606 ± 0.016 | relative viability (H2030; log10 concentration (uM): -2, siRNA knockdown: YAP/TAZ siRNA 1): 0.348 ± 0.061 | relative viability (H2030; log10 concentration (uM): -2, siRNA knockdown: YAP/TAZ siRNA 2): 0.333 ± 0.051 | relative viability (H2030; log10 concentration (uM): -2, siRNA knockdown: negative control siRNA): 0.883 ± 0.023 | relative viability (H2030; log10 concentration (uM): -2.30103, siRNA knockdown: TEAD1-4 siRNA 1): 0.837 ± 0.039 | relative viability (H2030; log10 concentration (uM): -2.30103, siRNA knockdown: TEAD1-4 siRNA 2): 0.67 ± 0.056 | relative viability (H2030; log10 concentration (uM): -2.30103, siRNA knockdown: YAP/TAZ siRNA 1): 0.471 ± 0.014 | relative viability (H2030; log10 concentration (uM): -2.30103, siRNA knockdown: YAP/TAZ siRNA 2): 0.457 ± 0.05 | relative viability (H2030; log10 concentration (uM): -2.30103, siRNA knockdown: negative control siRNA): 0.909 ± 0.034 | relative viability (H2030; log10 concentration (uM): -3, siRNA knockdown: TEAD1-4 siRNA 1): 0.939 ± 0.022 | relative viability (H2030; log10 concentration (uM): -3, siRNA knockdown: TEAD1-4 siRNA 2): 0.875 ± 0.068 | relative viability (H2030; log10 concentration (uM): -3, siRNA knockdown: YAP/TAZ siRNA 1): 0.812 ± 0.073 | relative viability (H2030; log10 concentration (uM): -3, siRNA knockdown: YAP/TAZ siRNA 2): 0.688 ± 0.1 | relative viability (H2030; log10 concentration (uM): -3, siRNA knockdown: negative control siRNA): 0.969 ± 0.066 | relative viability (H2030; log10 concentration (uM): -4, siRNA knockdown: TEAD1-4 siRNA 1): 1.05 ± 0.046 | relative viability (H2030; log10 concentration (uM): -4, siRNA knockdown: TEAD1-4 siRNA 2): 0.914 ± 0.035 | relative viability (H2030; log10 concentration (uM): -4, siRNA knockdown: YAP/TAZ siRNA 1): 1.09 ± 0.037 | relative viability (H2030; log10 concentration (uM): -4, siRNA knockdown: YAP/TAZ siRNA 2): 1.04 ± 0.03 | relative viability (H2030; log10 concentration (uM): -4, siRNA knockdown: negative control siRNA): 0.955 ± 0.069
